Measured values taken from patent publication EP3292132B1, “PI3K INHIBITOR COMPOUNDS TO TREAT CANCER” (FUNDACIÓN MEDINA. Centro de Excelencia en Investigación de …, priority 2015, dated 2016).

Legend:
AKT = assay: Western blot, PI3K/AKT/mTOR pathway inhibition: total AKT; format: cell-based; settings: 60 min treatment; signals quantified using β-actine
From the text: (§1) Western blot technique was used, using an Odissey Licor equipment to identify the proteins. Phospho AKT, AKT and Phospho GSK3β antibodies were used as first antibodies and anti-mouse 680nm as second antibody. Then, the signals were quantified using β-actine.

Phospho AKT = assay: Western blot, PI3K/AKT/mTOR pathway inhibition: phospho AKT; format: cell-based; settings: 1 hour treatment; signals quantified using β-actine
From the text: as §1

Phospho GSK3β = assay: Western blot, PI3K/AKT/mTOR pathway inhibition: phospho GSK3β; format: cell-based; settings: 1 hour treatment; signals quantified using β-actine
From the text: as §1

mice = settings: mouse, ip, 50 mg/kg
Method: In order to evaluate the in vivo toxicity, mice were intraperitoneal injected with MDN-0088 at 50 mg/kg.

MCF-7 cell line = assay: Cell cycle analysis by flow cytometry (propidium iodide DNA staining); format: cell-based; settings: for percentage of cells in each cell cycle phase: G0/G1 / percentage of cells in each cell cycle phase: G2/M / percentage of cells in each cell cycle phase: S: 72 hours of incubation
Method: For the evaluation of the MDN-0088 activity, the MCF-7 cell line was used. The method used was flow cytometry to determine the effect of MDN-0088 on cell cycle. This method of DNA staining utilizes ethanol to fix the cells and permeabilize the membrane, which allows the dye (Propidium Iodide) to enter the cells.
For this purpose, cells were seeded in 6-well plates at 200,000 cells/well. After 24 hours, cells were serum-deprived for 72 hours. Medium was removed and compounds/standards were added in fresh medium at a different concentration (4µL of compound/2mL fresh medium). DMSO concentration was 0.2% in all wells. After 72 hours of incubation (37 °C, 5% CO2), cells were scrapped and centrifuged (1200rpm for 5 min) and washed twice with PBS. 330 µL of cell suspension was placed in a Facs tube and 660 µL ice cold 100% ethanol was added drop-wise to the tube walls. Tubes were mixed by vortexing slowly during addition of ethanol. They were left at […] overnight.
Tubes were centrifuged (1200 rpm for 5 min) to remove ethanol, 4 mL PBS was added and they were washed at 1200 rpm for 5 min. The supernatant was removed and cells were resuspended in DNA staining solution (500 µL PBS/IP 20µg/mL/Rnase 0.2 mg/ml). Data was acquired on a flow cytometer (Accury, BD).
As shown in Table 3 and Figure 1, an increase in G0/G1 and a decrease both in S and G2/M phase were observed. […]

## O=c1cc(N2CCOCC2)oc2c(-c3ccccc3)cccc12 [LY294002, reference compound]
AKT
  AKT total: 0.61
Phospho AKT
  pAKT: 0.055
Phospho GSK3β
  phospho-GSK3 β: 0.042

## CCCCCCCC(=O)CCCc1oc(=O)ccc1O[C@@H]1O[C@H](CO)[C@@H](O)[C@H](O)[C@H]1O [MDN-0088]
AKT
  AKT total: 0.58
mice; in vivo
  weight loss or changes in behavior: no weight loss or changes in their behavior
mice
  in vivo toxicity: absence of toxicity
Phospho AKT
  pAKT: 0.027
MCF-7 cell line; MCF-7, 6.25 µM
  percentage of cells in each cell cycle phase: G0/G1: 48.17%
  percentage of cells in each cell cycle phase: G2/M: 17.71%
  percentage of cells in each cell cycle phase: S: 6.09%
MCF-7 cell line; MCF-7, 12.5 µM
  percentage of cells in each cell cycle phase: G0/G1: 53.49%
  percentage of cells in each cell cycle phase: G2/M: 15.76%
  percentage of cells in each cell cycle phase: S: 5.64%
MCF-7 cell line; MCF-7, 25 µM
  percentage of cells in each cell cycle phase: G0/G1: 56.9%
  percentage of cells in each cell cycle phase: G2/M: 14.38%
  percentage of cells in each cell cycle phase: S: 3.49%
MCF-7 cell line; MCF-7, 50 µM
  percentage of cells in each cell cycle phase: G0/G1: 62.79%
  percentage of cells in each cell cycle phase: G2/M: 10.99%
  percentage of cells in each cell cycle phase: S: 2.37%
MCF-7 cell line; MCF-7, result in words
  effect on cell cycle: blocks the cell cycle in G0/G1 phase
Phospho GSK3β
  phospho-GSK3 β: 0.037
